Source: patent publication US20090326003A1, “PYRAZOLO (3, 4-B) PYRIDINE DERIVATIVES AS PDE4 INHIBITORS” (priority 2006, published 2009)
Structures can show the parent of a compound that is named as a salt.

What follows are compounds tested against T1, PDE4B (human recombinant) (Homo sapiens, UniProt Q07343) (assay: PDE4B inhibition, fluorescence polarisation (FP) and/or SPA assay). Settings: n=1 or average of 2 or more readings, accuracy ±about 0.5 log unit, read-out: PDE4B pIC50 (generally in FP assay) (±about 0.5) (converted).
T1 construct: made in house
Assay type: biochemical
Excerpt: Human recombinant PDE4B, in particular the 2B splice variant thereof (HSPDE4B2B), is disclosed in WO 94/20079 and also M. M. McLaughlin et al., “A low Km, rolipram-sensitive, cAMP-specific phosphodiesterase from human brain: cloning and expression of cDNA, biochemical characterisation of recombinant protein, and tissue distribution of mRNA”, J. Biol. Chem., 1993, 268, 6470-6476. For example, in Example 1 of WO 94/20079, human recombinant PDE4B is described as being expressed in the PDE-deficient yeast Saccharomyces cerevisiae strain GL62, e.g. after induction by addition of 150 uM CuSO4, and 100,000×g supernatant fractions of yeast cell lysates are described for use in the harvesting of PDE4B enzyme.
The ability of compounds to inhibit catalytic activity at PDE4B or 4D (human recombinant), PDE3 (from bovine aorta), PDE5 (human recombinant) or PDE6 (from bovine retina) can optionally be determined by Scintillation Proximity Assay (SPA) in a 96-well format.
Test compounds (as a solution in DMSO, preferably about 2 microliter (ul) volume of DMSO solution) are preincubated at ambient temperature (room temperature, e.g. 19-23° C.) in Wallac Isoplates (code 1450-514) with PDE enzyme in 50 mM Tris-HCl buffer pH 7.5, 8.3 mM MgCl2, 1.7 mM EGTA, 0.05% (w/v) bovine serum albumin for 10-30 minutes (usually 30 minutes). The enzyme concentration is adjusted so that no more than 20% hydrolysis of the substrate defined below occurs in control wells without compound, during the incubation. For the PDE3, PDE4B and PDE4D assays, [5′,8-3H]Adenosine 3′,5′-cyclic phosphate (Amersham Pharmacia Biotech, code TRK.559; or Amersham Biosciences UK Ltd, Pollards Wood, Chalfont St Giles, Buckinghamshire HP8 4SP, UK) is added to give 0.05 uCi per well and about 10 nM final concentration. For the PDE5 and PDE6 assays, [8-^3H]Guanosine 3′,5′-cyclic phosphate (Amersham Pharmacia Biotech, code TRK.392) is added to give 0.05 uCi per well and about 36 nM final concentration. Plates containing assay mixture, preferably approx. 100 ul volume of assay mixture, are mixed on an orbital shaker for 5 minutes and incubated at ambient temperature for 1 hour. Phosphodiesterase SPA beads (Amersham Pharmacia Biotech, code RPNQ 0150) are added (about 1 mg per well) to terminate the assay. Plates are sealed and shaken and allowed to stand at ambient temperature for 35 minutes to 1 hour (preferably 35 minutes) to allow the beads to settle. Bound radioactive product is measured using a WALLAC TRILUX 1450 Microbeta scintillation counter. For inhibition curves, 10 concentrations (e.g. 1.5 nM-30 uM) of each compound are assayed. Curves are analysed using ActivityBase and XLfit (ID Business Solutions Limited, 2 Ocean Court, Surrey Research Park, Guildford, Surrey GU2 7QB, United Kingdom) Results are expressed as pIC50 values.
The ability of compounds to inhibit catalytic activity at PDE4B (human recombinant) or PDE4D (human recombinant) can optionally be determined by IMAP Fluorescence Polarisation (FP) assay (IMAP Explorer kit, available from Molecular Devices Corporation, Sunnydale, Calif., USA; Molecular Devices code: R8062) in 384-well format.
The IMAP FP assay is able to measure PDE activity in an homogenous, non-radioactive assay format. The FP assay uses the ability of immobilised trivalent metal cations, coated onto nanoparticles (tiny beads), to bind the phosphate group of FI-AMP that is produced on the hydrolysis of fluorescein-labelled (FI) cyclic adenosine mono-phosphate (FI-cAMP) to the non-cyclic FI-AMP form. […] Binding of FI-AMP product to the beads (coated with the immobilised trivalent cations) slows the rotation of the bound FI-AMP and leads to an increase in the fluorescence polarisation ratio of parallel to perpendicular light. Inhibition of the PDE reduces/inhibits this signal increase. […]

T1 sequence (Q07343 1-564 isoform Q07343-2): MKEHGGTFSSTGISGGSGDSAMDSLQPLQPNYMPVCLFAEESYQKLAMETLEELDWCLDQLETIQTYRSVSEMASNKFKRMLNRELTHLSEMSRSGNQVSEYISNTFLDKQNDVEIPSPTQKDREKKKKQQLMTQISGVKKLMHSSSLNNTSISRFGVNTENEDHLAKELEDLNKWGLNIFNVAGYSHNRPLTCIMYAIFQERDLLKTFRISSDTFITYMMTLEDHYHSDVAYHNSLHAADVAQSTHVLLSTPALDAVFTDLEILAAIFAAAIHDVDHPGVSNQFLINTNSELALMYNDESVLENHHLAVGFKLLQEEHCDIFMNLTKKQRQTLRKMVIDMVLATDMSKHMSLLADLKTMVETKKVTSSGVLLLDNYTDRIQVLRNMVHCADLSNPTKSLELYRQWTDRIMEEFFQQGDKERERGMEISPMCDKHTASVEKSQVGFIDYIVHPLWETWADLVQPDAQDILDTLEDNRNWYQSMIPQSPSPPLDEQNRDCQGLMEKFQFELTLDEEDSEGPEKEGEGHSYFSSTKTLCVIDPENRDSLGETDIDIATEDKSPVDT

| SMILES | IC50 [nM] |
| --- | --- |
| CCc1nc2c(cnn2CC)c(NC2CCOCC2)c1CNC(=O)CCc1ccc(C(=O)NCc2c(CC)nc3c(cnn3CC)c2NC2CCOCC2)cc1 [Example 1, N-{[1,6-diethyl-4-(tetrahydro-2H-pyran-4-ylamino)-1H-pyrazolo[3,4-b]pyridin-5-yl]methyl}-4-[3-({[1,6-diethyl-4-(tetrahydro-2H-pyran-4-ylamino)-1H-pyrazolo[3,4-b]pyridin-5-yl]methyl}amino)-3-oxopropyl]benzamide] | 0.0158 to 0.1 |
| CCc1nc2c(cnn2CC)c(NC2CCOCC2)c1CNC(=O)CC(C)(C)CC(=O)NCc1c(CC)nc2c(cnn2CC)c1NC1CCOCC1 [Example 3, N,N′-bis{[1,6-diethyl-4-(tetrahydro-2H-pyran-4-ylamino)-1H-pyrazolo[3,4-b]pyridin-5-yl]methyl}-3,3-dimethylpentanediamide] | 0.0158 to 0.1 |
| CCc1nc2c(cnn2CC)c(NC2CCOCC2)c1CNC(=O)c1ccc(Cc2ccc(C(=O)NCc3c(CC)nc4c(cnn4CC)c3NC3CCOCC3)cc2)cc1 [Example 5, 4,4′-methanediylbis(N-{[1,6-diethyl-4-(tetrahydro-2H-pyran-4-ylamino)-1H-pyrazolo[3,4-b]pyridin-5-yl]methyl}benzamide)] | 0.0158 to 0.1 |
| CCc1nc2c(cnn2CC)c(NC2CCOCC2)c1CNC(=O)Cc1cccc(CC(=O)NCc2c(CC)nc3c(cnn3CC)c2NC2CCOCC2)c1 [Example 8, 2,2′-benzene-1,3-diylbis(N-{[1,6-diethyl-4-(tetrahydro-2H-pyran-4-ylamino)-1H-pyrazolo[3,4-b]pyridin-5-yl]methyl}acetamide)] | 0.126 to 1 |
| CCc1nc2c(cnn2CC)c(NC2CCN(C(N)=O)CC2)c1CNC(=O)CS(=O)(=O)CC(=O)NCc1c(CC)nc2c(cnn2CC)c1NC1CCN(C(N)=O)CC1 [Example 12, 4,4′-{sulfonylbis[(1-oxo-2,1-ethanediyl)iminomethanediyl(1,6-diethyl-1H-pyrazolo[3,4-b]pyridine-5,4-diyl)imino]}di(1-piperidinecarboxamide) trifluoroacetate] | 0.0158 to 0.1 |
| CCc1nc2c(cnn2CC)c(NC2CCN(C(N)=O)CC2)c1CNC(=O)CCc1ccc(C(=O)NCc2c(CC)nc3c(cnn3CC)c2NC2CCN(C(N)=O)CC2)cc1 [Example 14, 4-({5-[({3-[4-({[(4-{[1-(aminocarbonyl)-4-piperidinyl]amino}-1,6-diethyl-1H-pyrazolo[3,4-b]pyridin-5-yl)methyl]amino}carbonyl)phenyl]propanoyl}amino)methyl]-1,6-diethyl-1H-pyrazolo[3,4-b]pyridin-4-yl}amino)-1-piperidinecarboxamide trifluoroacetate] | 0.0158 to 0.1 |
| CCc1nc2c(cnn2CC)c(NC2CCN(C(N)=O)CC2)c1CNC(=O)Cc1ccc(C(=O)NCc2c(CC)nc3c(cnn3CC)c2NC2CCN(C(N)=O)CC2)cc1 [Example 15, 4-({5-[({[4-({[(4-{[1-(aminocarbonyl)-4-piperidinyl]amino}-1,6-diethyl-1H-pyrazolo[3,4-b]pyridin-5-yl)methyl]amino}carbonyl)phenyl]acetyl}amino)methyl]-1,6-diethyl-1H-pyrazolo[3,4-b]pyridin-4-yl}amino)-1-piperidinecarboxamide trifluoroacetate] | 0.0158 to 0.1 |
| CCc1nc2c(cnn2CC)c(NC2CCN(C(N)=O)CC2)c1CNC(=O)c1ccc(Cc2ccc(C(=O)NCc3c(CC)nc4c(cnn4CC)c3NC3CCN(C(N)=O)CC3)cc2)cc1 [Example 18, 4,4′-{methanediylbis[benzene-4,1-diyl(oxomethanediyl)iminomethanediyl(1,6-diethyl-1H-pyrazolo[3,4-b]pyridine-5,4-diyl)imino]}di(1-piperidinecarboxamide) trifluoroacetate] | 0.0158 to 0.1 |

Next, values leading:

| IC50 [nM] | SMILES |
| --- | --- |
| 0.126 to 1 | CCc1nc2c(cnn2CC)c(NC2CCOCC2)c1CNC(=O)CCCC(=O)NCc1c(CC)nc2c(cnn2CC)c1NC1CCOCC1 [Example 2, N,N′-bis{[1,6-diethyl-4-(tetrahydro-2H-pyran-4-ylamino)-1H-pyrazolo[3,4-b]pyridin-5-yl]methyl}pentanediamide] |
| 0.126 to 1 | CCc1nc2c(cnn2CC)c(NC2CCOCC2)c1CNC(=O)Cc1ccc(CC(=O)NCc2c(CC)nc3c(cnn3CC)c2NC2CCOCC2)cc1 [Example 6, 2,2′-benzene-1,4-diylbis(N-{[1,6-diethyl-4-(tetrahydro-2H-pyran-4-ylamino)-1H-pyrazolo[3,4-b]pyridin-5-yl]methyl}acetamide)] |
| 0.0158 to 0.1 | CCc1nc2c(cnn2CC)c(NC2CCOCC2)c1CNC(=O)CCc1ccccc1C(=O)NCc1c(CC)nc2c(cnn2CC)c1NC1CCOCC1 [Example 7, N-{[1,6-diethyl-4-(tetrahydro-2H-pyran-4-ylamino)-1H-pyrazolo[3,4-b]pyridin-5-yl]methyl}-2-[3-({[1,6-diethyl-4-(tetrahydro-2H-pyran-4-ylamino)-1H-pyrazolo[3,4-b]pyridin-5-yl]methyl}amino)-3-oxopropyl]benzamide] |
| 0.126 to 1 | CCc1nc2c(cnn2CC)c(NC2CCOCC2)c1CNC(=O)COCC(=O)NCc1c(CC)nc2c(cnn2CC)c1NC1CCOCC1 [Example 9, 2,2′-oxybis(N-{[1,6-diethyl-4-(tetrahydro-2H-pyran-4-ylamino)-1H-pyrazolo[3,4-b]pyridin-5-yl]methyl}acetamide)] |
| 0.0158 to 0.1 | CCc1nc2c(cnn2CC)c(NC2CCN(C(N)=O)CC2)c1CNC(=O)C1CCC(C(=O)NCc2c(CC)nc3c(cnn3CC)c2NC2CCN(C(N)=O)CC2)CC1 (centres unmarked) [Example 11, N,N′-bis[(4-{[1-(aminocarbonyl)-4-piperidinyl]amino}-1,6-diethyl-1H-pyrazolo[3,4-b]pyridin-5-yl)methyl]-1,4-cyclohexanedicarboxamide trifluoroacetate] |
| 0.126 to 1 | CCc1nc2c(cnn2CC)c(NC2CCN(C(N)=O)CC2)c1CNC(=O)Cc1cccc(C(=O)NCc2c(CC)nc3c(cnn3CC)c2NC2CCN(C(N)=O)CC2)c1 [Example 13, 4-({5-[({[3-({[(4-{[1-(aminocarbonyl)-4-piperidinyl]amino}-1,6-diethyl-1H-pyrazolo[3,4-b]pyridin-5-yl)methyl]amino}carbonyl)phenyl]acetyl}amino)methyl]-1,6-diethyl-1H-pyrazolo[3,4-b]pyridin-4-yl}amino)-1-piperidinecarboxamide trifluoroacetate] |
| 0.0158 to 0.1 | CCc1nc2c(cnn2CC)c(NC2CCN(C(N)=O)CC2)c1CNC(=O)COc1ccccc1C(=O)NCc1c(CC)nc2c(cnn2CC)c1NC1CCN(C(N)=O)CC1 [Example 16, 4-[(5-{[({[2-({[(4-{[1-(aminocarbonyl)-4-piperidinyl]amino}-1,6-diethyl-1H-pyrazolo[3,4-b]pyridin-5-yl)methyl]amino}carbonyl)phenyl]oxy}acetyl)amino]methyl}-1,6-diethyl-1H-pyrazolo[3,4-b]pyridin-4-yl)amino]-1-piperidinecarboxamide trifluoroacetate] |
| 0.126 to 1 | CCc1nc2c(cnn2CC)c(NC2CCN(C(N)=O)CC2)c1CNC(=O)CCC(=O)NCc1c(CC)nc2c(cnn2CC)c1NC1CCN(C(N)=O)CC1 [Example 17, N,N′-bis[(4-{[1-(aminocarbonyl)-4-piperidinyl]amino}-1,6-diethyl-1H-pyrazolo[3,4-b]pyridin-5-yl)methyl]butanediamide trifluoroacetate] |
| 0.0158 to 0.1 | CCc1nc2c(cnn2CC)c(NC2CCN(C(N)=O)CC2)c1CNC(=O)CC(C)(C)CC(=O)NCc1c(CC)nc2c(cnn2CC)c1NC1CCN(C(N)=O)CC1 [Example 19, N,N′-bis[(4-{[1-(aminocarbonyl)-4-piperidinyl]amino}-1,6-diethyl-1H-pyrazolo[3,4-b]pyridin-5-yl)methyl]-3,3-dimethylpentanediamide trifluoroacetate] |
